Ends that are not written are not given here.
Legend:
[1] = test system: atrophy of the skeletal muscle of the entire body due to disuse; test: Prophylactic treatment of skeletal muscle atrophy in a comatose subject (Example 11); assay type: in vivo; details: human 50 kg, 3 ml of 500 mg/ml with D,L lactic and glycolic acid copolymer i.m. once each month
Method: A human subject weighing 50 kg is admitted to the hospital in a comatose state. The subject is treated to prevent atrophy of the skeletal muscle of the entire body due to disuse while in the comatose state. Specifically, once each month while in the coma, the subject is administered, via intramuscular injection, 3 ml of an aqueous solution of pH 6.0 comprising the following: […]

[2] = test system: casting-induced atrophied tibialis anterior muscle and normal medial gastrocnemius muscle; test: Mouse disuse (casting) atrophy model (FIG. 4); assay type: in vivo; details: male mice, right hind leg cast; 0.03, 0.1, 0.3 mg/kg s.c. 2x daily + theophylline 30 mg/kg i.p., nine days
Method: (§1) Legend for the X-axis: A: Saline, B: VPAC2R agonist (0.03 mg/kg)+T, C: VPAC2R agonist (0.1 mg/kg)+T, D: VPAC2R agonist (0.3 mg/kg)+T.
Following casting of the right hind leg, male mice were injected subcutaneously in the midscapular region twice daily, with either the above indicated agent at the doses indicated in FIGS. 4A and 4B or vehicle control (physiological saline) for nine days. The VPAC2R agonist was co-administered with twice daily intra-peritoneal dosing of the phosphodiesterase inhibitor theophylline (T—30 mg/kg). On day nine, the medial gastrocnemius and tibialis anterior muscles were removed and weighed to determine the degree of atrophy. […] Statistical significance of the results were determined using ANCOVA.
The leg casting disuse atrophy model involves casting one hind leg of an animal from the knee down through the foot. Typically, muscle mass is reduced 20-40% after ten days of casting. Following casting, test compounds are administered by injection or by continuous infusion via implantation of an osmotic minipump (e.g. Alza, Palo Alto, Calif.) to determine their effect on leg casting induced skeletal muscle atrophy. At various times following leg casting, the extent of atrophy in the affected muscles is analyzed as described above for the denervation model.

[3] = test system: denervated and non-denervated (control) tibialis anterior and medial gastrocnemius muscles; test: Mouse denervation atrophy model, continuous infusion by osmotic minipump (FIG. 2); assay type: in vivo; details: male mice, continuous infusion by osmotic minipump 0.3, 1, 3 mg/kg daily, no theophylline, day nine
Method: Legend for the X-axis: A: water infused, B: VPAC1R agonist (0.3 mg/kg), C: VPAC1R agonist (1 mg/kg), D: VPAC1R agonist (3 mg/kg), E: VPAC2R agonist (0.3 mg/kg), F: VPAC2R agonist (1 mg/kg), G: VPAC2R agonist (3 mg/kg), H: PACAP-38 (0.3 mg/kg), I: PACAP-38 (1 mg/kg), PACAP-38 (3 mg/kg).
(VPAC1R agonist), the VPAC2 receptor selective agonist, Ro 25-1553 (VPAC2R agonist), or the VPAC1/VPAC2 receptor nonselective agonist, PACAP-38. Following denervation of the right sciatic nerve, male mice were dosed with the above indicated agents or vehicle control (physiological saline) by continuous infusion using an ALZeT osmotic minipump at 5 μl/hr until the end of the experimental period. The daily delivered dose of the agents are as indicated on FIGS. 2A and 2B. Minipump implantation was performed at the same time as the sciatic nerve denervation. On day nine the medial gastrocnemius and tibialis anterior muscles were removed and weighed to determine the degree of atrophy. […] Statistical significance of the results were determined using ANCOVA.
(§2) The sciatic nerve denervation atrophy model involves anesthetizing the animal followed by the surgical removal of a short segment of either the right or left sciatic nerve, e.g. in mice the sciatic nerve is isolated approximately at the midpoint along the femur and a 3-5 mm segment is removed. This denervates the lower hind limb musculature resulting in atrophy of these muscles. Typically, innervation to the biceps femoris is left intact to provide satisfactory motion of the knee for virtually normal ambulation. Typically, in untreated animals, muscle mass of the denervated muscles is reduced 30-50% ten days following denervation. […] The extent of atrophy in the affected muscles is analyzed, for example, by measuring muscle mass, muscle cross-sectional area, myofiber cross-sectional area or contractile protein content.

[4] = test system: denervated tibialis anterior and medial gastrocnemius muscles; test: Mouse denervation atrophy model, agonists subcutaneously 2x daily with theophylline (FIG. 1); assay type: in vivo; details: male mice, right sciatic nerve denervation; 0.1 and 0.3 mg/kg s.c. 2x daily + theophylline 30 mg/kg i.p. 2x daily, nine days; versus saline
Method: Legend for the X-axis: A: Saline, B: VPAC1R agonist (0.1 mg/kg)+T, C: VPAC1R agonist (0.3 mg/kg)+T, D: VPAC2R agonist (0.1 mg/kg)+T, E: VPAC2R agonist (0.3 mg/kg)+T, F: PACAP-38 (0.1 mg/kg)+T, G: PACAP-38 (0.3 mg/kg)+T.
(VPAC1R agonist), the VPAC2 receptor selective agonist, Ro 25-1553 (VPAC2R agonist), or the VPAC1/VPAC2 receptor nonselective agonist, PACAP-38. Following denervation of the right sciatic nerve, male mice were injected subcutaneously in the midscapular region twice daily, with either the above indicated agents at the doses indicated in FIGS. 1A and 1B or vehicle control (physiological saline) for nine days. These agonists were co-administered with twice daily intra-peritoneal dosing of the phosphodiesterase inhibitor theophylline (T-30 mg/kg) (included to increase the magnitude and the duration of action of cAMP signals induced by the VPAC receptor agonists). On day nine, the medial gastrocnemius and tibialis anterior muscles were removed and weighed to determine the degree of atrophy. […] Statistical significance of the results were determined using ANCOVA (Douglas C. Montgomery, Design and Analysis of Experiments, John Wiley and Sons, New York (2nd ed. 1984)).
The sciatic nerve denervation atrophy model involves anesthetizing the animal followed by the surgical removal of a short segment of either the right or left sciatic nerve, e.g. in mice the sciatic nerve is isolated approximately at the midpoint along the femur and a 3-5 mm segment is removed. This denervates the lower hind limb musculature resulting in atrophy of these muscles. Typically, innervation to the biceps femoris is left intact to provide satisfactory motion of the knee for virtually normal ambulation. Typically, in untreated animals, muscle mass of the denervated muscles is reduced 30-50% ten days following denervation. Following denervation, test compounds are administered e.g., by injection or by continuous infusion, e.g. via implantation of an osmotic minipump (e.g. Alza, Palo Alto, Calif.), to determine their effect on denervation induced skeletal muscle atrophy. At various times following denervation, the animals are euthanized and lower leg muscles are dissected rapidly from both the denervated and nondenervated legs, the muscles, cleaned of tendons and connective tissue, are weighed. The extent of atrophy in the affected muscles is analyzed, for example, by measuring muscle mass, muscle cross-sectional area, myofiber cross-sectional area or contractile protein content.

VPAC2 receptor = target: T1, VPAC2 receptor (Homo sapiens, UniProt P41587); details: relative to PACAP38; cited from earlier work
T1 sequence (P41587 24-438): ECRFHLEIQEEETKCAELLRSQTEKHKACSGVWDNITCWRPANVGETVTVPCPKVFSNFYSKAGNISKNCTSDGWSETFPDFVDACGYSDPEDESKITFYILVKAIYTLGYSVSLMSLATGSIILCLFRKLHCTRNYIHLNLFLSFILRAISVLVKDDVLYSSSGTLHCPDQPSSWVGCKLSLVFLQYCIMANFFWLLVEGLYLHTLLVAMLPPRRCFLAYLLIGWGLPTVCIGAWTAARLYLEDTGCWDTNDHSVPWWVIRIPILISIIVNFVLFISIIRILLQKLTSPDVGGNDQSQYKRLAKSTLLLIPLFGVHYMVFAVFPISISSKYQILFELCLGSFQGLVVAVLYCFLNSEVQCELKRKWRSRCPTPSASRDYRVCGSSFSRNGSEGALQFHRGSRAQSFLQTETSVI

[5] = test system: denervated tibialis anterior and extensor digitorum longus (EDL) muscles; test: Rat denervation atrophy model (FIG. 5); assay type: in vivo; details: male rats, right sciatic nerve denervation; 0.03, 0.1, 0.3 mg/kg s.c. 2x daily + theophylline 30 mg/kg i.p., nine days
Method: as §1
Following denervation of the right sciatic nerve, male rats were injected subcutaneously in the midscapular region twice daily, with either the VPAC2R receptor agonist at the doses indicated in FIGS. 5A and 5B or vehicle control (physiological saline) for nine days. The VPAC2R receptor agonist was co-administered with twice daily intra-peritoneal dosing of the phosphodiesterase inhibitor theophylline (T—30 mg/kg). On day nine, the tibialis anterior and extensor digitorum longus (EDL) muscles were removed and weighed to determine the degree of atrophy. […] Statistical significance of the results were determined using ANCOVA.
as §2, with “muscles.” for “muscles. Typically, innervation to the biceps femoris is left intact to provide satisfactory motion of the knee for virtually normal ambulation. Typically, in untreated animals, muscle mass of the denervated muscles is reduced 30-50% ten days following denervation.”

[6] = test system: glucocorticoid-induced atrophied tibialis anterior and medial gastrocnemius muscles; test: Mouse glucocorticoid (dexamethasone)-induced atrophy model (FIG. 3); assay type: in vivo; details: male mice, dexamethasone 1.2 mg/kg/d in drinking water; 0.1 and 0.3 mg/kg s.c. 2x daily + theophylline 30 mg/kg i.p., nine days
Method: Legend for the X-axis: 1: Saline+Dexamethasone (1.2 mg/kg/day included in the drinking water), 2: PACAP-38 (0.1 mg/kg)+Dexamethasone+T, 3: PACAP-38 (0.3 mg/kg)+Dexamethasone+T, 4: VPAC1R agonist (0.1 mg/kg)+Dexamethasone+T, 5: VPAC1R agonist (0.3 mg/kg)+Dexamethasone+T, 6: VPAC2R agonist (0.1 mg/kg)+Dexamethasone+T, 7: VPAC2R agonist (0.3 mg/kg)+Dexamethasone+T.
(VPAC1R agonist), the VPAC2 receptor selective agonist, Ro 25-1553 (VPAC2R agonist), or the VPAC1/VPAC2 receptor nonselective agonist, PACAP-38. Following the addition of the glucocorticoid, dexamethasone to the drinking water (1.2 mg/kg/d), male mice were injected subcutaneously in the midscapular region twice daily, with either the above indicated agents at the doses indicated in FIGS. 3A and 3B or vehicle control (physiological saline) for nine days. These agonists were co-administered with twice daily intra-peritoneal dosing of the phosphodiesterase inhibitor theophylline (T—30 mg/kg). Nine days following the initiation of dosing of the VPAC receptor agonists and dexamethasone, the medial gastrocnemius and tibialis anterior muscles were removed and weighed to determine the degree of atrophy. […] Statistical significance of the results were determined using ANCOVA.
The glucocorticoid induced atrophy model involves the administration of a glucocorticoid to the test animal, e.g. 1.2 mg/kg/day of dexamethasone in the drinking water. Typically, in untreated animals, skeletal muscle mass is reduced 30-50% following ten days of dexamethasone administration. Concomitantly with, or following glucocorticoid administration, test compounds are administered e.g., by injection or by continuous infusion to determine their effect on glucocorticoid induced skeletal muscle atrophy. At various times following glucocorticoid administration, the extent of atrophy in the affected muscles is analyzed as described above for the denervation model.

skeletal muscle atrophy = test: Animal models of skeletal muscle atrophy, summary of FIGS. 1-5; assay type: in vivo; details: theophylline alone
VPAC1 receptor = target: T2, VPAC1 receptor (Homo sapiens, UniProt P32241); details: relative to PACAP38; cited from earlier work
T2 sequence (P32241 31-457): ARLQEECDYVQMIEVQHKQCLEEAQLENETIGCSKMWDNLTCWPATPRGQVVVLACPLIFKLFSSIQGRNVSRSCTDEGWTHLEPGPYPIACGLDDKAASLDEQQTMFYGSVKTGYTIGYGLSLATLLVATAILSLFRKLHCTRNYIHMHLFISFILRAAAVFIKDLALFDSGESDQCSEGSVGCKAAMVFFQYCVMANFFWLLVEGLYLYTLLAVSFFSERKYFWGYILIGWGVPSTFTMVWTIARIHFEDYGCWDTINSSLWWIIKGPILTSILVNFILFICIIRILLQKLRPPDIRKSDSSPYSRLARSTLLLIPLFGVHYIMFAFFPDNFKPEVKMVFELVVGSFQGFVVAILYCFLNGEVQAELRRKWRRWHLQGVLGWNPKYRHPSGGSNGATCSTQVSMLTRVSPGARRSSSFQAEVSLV

Ro 25-1553
skeletal muscle mass and physical therapy needs [1]: measurable preservation of skeletal muscle mass and reduced physical therapy needs
disuse-induced atrophy of the tibialis anterior muscle (FIG. 4A) [2]: inhibited disuse-induced atrophy
hypertrophy of the medial gastrocnemius muscle (normal, FIG. 4B) [2]: induced hypertrophy
atrophy of the denervated tibialis anterior muscle (muscle weight, FIG. 2A) ([3]; sciatic denervation): inhibited atrophy
hypertrophy of the non-denervated (control) medial gastrocnemius muscle (FIG. 2B) [3]: induced hypertrophy
hypertrophy of the non-denervated (control) tibialis anterior muscle (FIG. 2A) [3]: induced hypertrophy
atrophy of the denervated medial gastrocnemius muscle (muscle weight, FIG. 1B) [4]: inhibited atrophy
atrophy of the denervated tibialis anterior muscle (muscle weight, FIG. 1A) [4]: inhibited atrophy
potency as VPAC2 receptor selective agonist (VPAC2 receptor): potency similar to PACAP38
atrophy of the denervated EDL muscle (FIG. 5B) [5]: inhibited atrophy
atrophy of the denervated tibialis anterior muscle (FIG. 5A) [5]: inhibited atrophy
muscle atrophy of the medial gastrocnemius induced by glucocorticoid administration (FIG. 3B) [6]: inhibited muscle atrophy
muscle atrophy of the tibialis anterior induced by glucocorticoid administration (FIG. 3A) [6]: inhibited muscle atrophy

PACAP-38 (HSDGIFTDSYSRYRKQMAVKKYLAAVLGKRYKQRVKNK; ends and bridges not checked; UniProt P18509 132-169, looked up)
atrophy of the denervated medial gastrocnemius muscle (muscle weight, FIG. 1B) [4]: inhibited atrophy
atrophy of the denervated tibialis anterior muscle (muscle weight, FIG. 1A) [4]: inhibited atrophy
muscle atrophy of the medial gastrocnemius induced by glucocorticoid administration (FIG. 3B) [6]: inhibits muscle atrophy

Cn1c(=O)c2[nH]cnc2n(C)c1=O [Theophylline, theophylline]
effect of theophylline administered by itself in the atrophy models (skeletal muscle atrophy): no effect

[K^15, R^16, L^27VIP(1-7), GRF(8-27)-NH2]
potency as VPAC1 receptor selective agonist (VPAC1 receptor): potency similar to PACAP38
atrophy of the denervated medial gastrocnemius muscle (muscle weight, FIG. 1B) [4]: inhibited atrophy
muscle atrophy of the tibialis anterior induced by glucocorticoid administration (FIG. 3A) [6]: inhibited muscle atrophy

Source: patent US6750194B1, “Methods of identifying compounds for regulating muscle mass or function using vasoactive intestinal peptide receptors” (The Procter & Gamble Company, priority 2000, dated 2004)
